This is an account of results in ChEMBL document CHEMBL1201862, “PubChem BioAssay data set” (2004).

Active and inactive are the calls of the source.

Assay [1] has as its target T1, Fructose-bisphosphate aldolase (Mycobacterium tuberculosis, UniProt P9WQA3).
T1 sequence (P9WQA3 whole entry): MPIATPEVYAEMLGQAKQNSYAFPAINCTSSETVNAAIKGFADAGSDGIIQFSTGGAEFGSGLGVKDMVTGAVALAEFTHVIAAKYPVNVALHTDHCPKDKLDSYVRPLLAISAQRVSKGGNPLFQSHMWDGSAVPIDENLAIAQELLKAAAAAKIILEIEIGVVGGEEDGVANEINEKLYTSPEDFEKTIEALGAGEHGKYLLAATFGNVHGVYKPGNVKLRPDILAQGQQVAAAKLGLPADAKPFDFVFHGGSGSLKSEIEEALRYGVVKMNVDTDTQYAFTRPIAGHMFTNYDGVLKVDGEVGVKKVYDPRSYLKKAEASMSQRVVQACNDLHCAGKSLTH
The experiment in a line: Fluorescence-based biochemical high throughput dose response assay for inhibitors of the fructose-bisphosphate aldolase (FBA) of M. tuberculosis. Format: functional.

In assay [2] the target is T2, Adenosylmethionine-8-amino-7-oxononanoate aminotransferase (Mycobacterium tuberculosis, UniProt P9WQ81).
T2 sequence (P9WQ81 whole entry): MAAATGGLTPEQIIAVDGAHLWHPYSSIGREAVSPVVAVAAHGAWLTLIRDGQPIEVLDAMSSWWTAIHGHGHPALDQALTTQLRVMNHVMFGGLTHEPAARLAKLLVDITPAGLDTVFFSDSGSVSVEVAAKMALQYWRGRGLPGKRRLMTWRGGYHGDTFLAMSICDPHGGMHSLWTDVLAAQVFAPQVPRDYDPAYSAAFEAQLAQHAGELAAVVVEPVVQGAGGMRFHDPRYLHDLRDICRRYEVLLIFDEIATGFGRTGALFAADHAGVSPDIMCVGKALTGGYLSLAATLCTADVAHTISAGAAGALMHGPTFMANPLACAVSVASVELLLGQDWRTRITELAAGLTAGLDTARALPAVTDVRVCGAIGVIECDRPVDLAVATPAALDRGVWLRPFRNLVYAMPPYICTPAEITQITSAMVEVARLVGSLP
The experiment in a line: Mycobacterium tuberculosis BioA enzyme inhibitor Measured in Biochemical System Using Plate Reader - 2163-02_Inhibitor_Dose_CherryPick_Activity. The class given is functional, Mycobacterium tuberculosis UT205.

A further assay in a line: cells. The class given is functional, cell-based.
The target in assay [3] is T3, Nuclear receptor subfamily 0 group B member 1 (Homo sapiens, UniProt P51843).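 Note: HEK293T cells transfected with SF-1 and DAX-1 plus StAR promoter luciferase reporter.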
T3 sequence (P51843 whole entry): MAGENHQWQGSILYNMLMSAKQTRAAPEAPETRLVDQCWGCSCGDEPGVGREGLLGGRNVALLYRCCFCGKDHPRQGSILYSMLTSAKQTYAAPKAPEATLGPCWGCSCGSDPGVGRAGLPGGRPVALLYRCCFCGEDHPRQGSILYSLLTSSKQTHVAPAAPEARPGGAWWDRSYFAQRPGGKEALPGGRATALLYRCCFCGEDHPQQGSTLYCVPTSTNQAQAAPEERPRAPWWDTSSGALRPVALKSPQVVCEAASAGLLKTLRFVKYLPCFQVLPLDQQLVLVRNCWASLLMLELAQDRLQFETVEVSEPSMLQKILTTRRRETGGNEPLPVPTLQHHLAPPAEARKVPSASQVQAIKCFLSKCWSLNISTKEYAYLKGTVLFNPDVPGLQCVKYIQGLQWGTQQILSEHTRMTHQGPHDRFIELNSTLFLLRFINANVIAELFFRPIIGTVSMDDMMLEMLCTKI
Format: functional, cell-based.

Assay [4] can be described thus: Fluorescence-based cell-based high throughput dose response assay for inhibitors of the interaction of nucleotide-binding oligomerization domain containing 2 (NOD2) and the receptor-interacting serine-threonine kinase 2 (RIPK2). The class given is functional. The settings on record: Homo sapiens.
The target in assay [5] is SWI/SNF-related matrix-associated actin-dependent regulator of chromatin subfamily A member 2 (Homo sapiens, UniProt P51531). Briefly: Luminescence-based cell-based high throughput dose response assay to identify activators of the function of SWI/SNF related, matrix associated, actin dependent regulator of chromatin, subfamily a, member 2 (SMARCA2, BRM). The class given is functional.
Chain of SWI/SNF-related matrix-associated actin-dependent regulator of chromatin subfamily A member 2 (P51531 whole entry): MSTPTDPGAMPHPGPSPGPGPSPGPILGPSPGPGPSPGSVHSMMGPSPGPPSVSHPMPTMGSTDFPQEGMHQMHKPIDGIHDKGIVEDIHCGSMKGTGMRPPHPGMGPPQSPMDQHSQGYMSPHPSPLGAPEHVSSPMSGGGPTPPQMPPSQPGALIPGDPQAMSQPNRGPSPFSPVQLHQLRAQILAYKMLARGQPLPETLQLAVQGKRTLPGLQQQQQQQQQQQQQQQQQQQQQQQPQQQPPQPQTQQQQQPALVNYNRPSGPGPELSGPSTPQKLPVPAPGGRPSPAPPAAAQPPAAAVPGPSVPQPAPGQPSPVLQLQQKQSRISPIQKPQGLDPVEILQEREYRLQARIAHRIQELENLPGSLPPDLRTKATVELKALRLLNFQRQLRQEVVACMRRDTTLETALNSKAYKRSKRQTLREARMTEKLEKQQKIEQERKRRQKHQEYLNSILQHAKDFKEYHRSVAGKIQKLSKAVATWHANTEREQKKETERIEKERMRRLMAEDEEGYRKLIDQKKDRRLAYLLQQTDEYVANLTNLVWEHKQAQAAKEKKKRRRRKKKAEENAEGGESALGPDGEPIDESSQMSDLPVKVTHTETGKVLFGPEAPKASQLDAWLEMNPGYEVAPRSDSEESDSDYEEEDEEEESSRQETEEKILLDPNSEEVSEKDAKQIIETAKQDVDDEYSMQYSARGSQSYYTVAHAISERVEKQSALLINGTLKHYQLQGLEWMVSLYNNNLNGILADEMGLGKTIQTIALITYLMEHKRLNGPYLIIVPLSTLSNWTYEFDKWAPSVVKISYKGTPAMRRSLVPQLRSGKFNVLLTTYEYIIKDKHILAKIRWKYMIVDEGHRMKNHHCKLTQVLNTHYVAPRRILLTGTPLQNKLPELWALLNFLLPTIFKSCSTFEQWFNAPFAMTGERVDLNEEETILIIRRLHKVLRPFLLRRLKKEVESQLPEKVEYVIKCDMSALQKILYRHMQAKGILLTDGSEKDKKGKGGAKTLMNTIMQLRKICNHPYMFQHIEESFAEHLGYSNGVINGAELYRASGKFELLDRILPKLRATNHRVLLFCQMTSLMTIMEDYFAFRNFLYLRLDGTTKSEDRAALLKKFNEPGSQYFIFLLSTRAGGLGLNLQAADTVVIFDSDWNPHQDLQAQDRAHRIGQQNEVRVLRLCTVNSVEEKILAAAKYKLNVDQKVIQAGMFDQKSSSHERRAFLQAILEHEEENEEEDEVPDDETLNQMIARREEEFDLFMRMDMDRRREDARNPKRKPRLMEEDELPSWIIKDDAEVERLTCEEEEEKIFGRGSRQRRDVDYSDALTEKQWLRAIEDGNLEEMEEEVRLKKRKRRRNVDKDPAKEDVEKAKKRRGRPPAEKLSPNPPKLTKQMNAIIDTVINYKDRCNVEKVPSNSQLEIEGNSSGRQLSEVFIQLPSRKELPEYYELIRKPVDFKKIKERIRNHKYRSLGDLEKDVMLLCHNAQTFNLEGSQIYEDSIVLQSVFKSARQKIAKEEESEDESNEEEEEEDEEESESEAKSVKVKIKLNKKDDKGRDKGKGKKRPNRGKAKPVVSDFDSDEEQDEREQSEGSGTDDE

The nature of assay [6]: Counterscreen for activators of the function of SWI/SNF related, matrix associated, actin dependent regulator of chromatin, subfamily a, member 2 (SMARCA2, BRM): Luminescence-based cell-based high throughput dose response assay to identify non-selective compounds using the VP16 reporter assay. The class given is functional.
Assay [7] in a line: reduction of Shn3 3'UTR-driven luciferase in osteoblasts – cell-based, Clone20 osteoblasts, firefly luciferase, cherry-picked, dose response (AID 624132).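 Note: firefly luciferase luminescence from reporter carrying the Shn3 3'UTR in osteoblasts.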 The class given is functional.
Assay [8] is described as follows: luciferase reporter signal suppression in cells – H4 neuroglioma cells, luminescence, dose response (AID 1990). Format: functional, cell-based. A general note: In a reporter assay the amount or activity of a reporter protein is the signal.
The nature of assay [9]: loss of viability in HepG2 cells – cell-based, CellTiter-Glo, cherry-picked, cytotoxicity control for Shn3 inhibitor project, dose response (AID 624134). The class given is functional. In general terms: In ATP-based viability assays light output follows the ATP content of the culture.
Assay [10] addresses T4, DNA repair protein RAD52 homolog (Homo sapiens, UniProt P43351).
T4 sequence (P43351 whole entry): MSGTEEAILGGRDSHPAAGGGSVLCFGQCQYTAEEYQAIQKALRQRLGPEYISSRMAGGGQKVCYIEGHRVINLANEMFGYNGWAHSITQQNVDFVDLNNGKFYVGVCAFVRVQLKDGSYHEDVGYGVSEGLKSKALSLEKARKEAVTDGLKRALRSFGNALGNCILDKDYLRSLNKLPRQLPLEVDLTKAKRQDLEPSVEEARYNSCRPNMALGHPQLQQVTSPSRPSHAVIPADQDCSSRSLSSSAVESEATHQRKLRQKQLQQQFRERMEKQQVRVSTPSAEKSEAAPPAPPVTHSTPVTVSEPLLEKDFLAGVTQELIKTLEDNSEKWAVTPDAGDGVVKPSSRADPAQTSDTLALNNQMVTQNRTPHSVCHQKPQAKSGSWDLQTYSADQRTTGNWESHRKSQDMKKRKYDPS
The class given is functional, biochemical.

The nature of assay [11]: alpha-synuclein stem-loop luciferase translation blockers – H4 neuroglioma cells, luminescence, confirmation (AID 1988). Format: functional, cell-based.
A short description of assay [12]: Luminescence Cell-Based Dose Response HTS to Identify Inhibitors of 5'UTR Stem-Loop Driven Prion Protein mRNA Translation in H4 Neuroglioblastoma Cells. [Related pubchem assays: 1827 (Project Summary), 1813 (Primary HTS)]. The class given is functional.
Assay [13] in a line: non-specific 3'UTR reporter inhibition in Clone20-Shn3RL – cell-based, Renilla luciferase, cherry-picked, counter-screen for Shn3 inhibitor project, dose response (AID 624133). The class given is functional. In general terms: The purpose of a counterscreen is to sort out artefacts and off-target activity.
Assay [14] addresses T5, Methionyl-tRNA synthetase, putative (Trypanosoma brucei brucei, UniProt Q38C91).
T5 sequence (Q38C91 whole entry): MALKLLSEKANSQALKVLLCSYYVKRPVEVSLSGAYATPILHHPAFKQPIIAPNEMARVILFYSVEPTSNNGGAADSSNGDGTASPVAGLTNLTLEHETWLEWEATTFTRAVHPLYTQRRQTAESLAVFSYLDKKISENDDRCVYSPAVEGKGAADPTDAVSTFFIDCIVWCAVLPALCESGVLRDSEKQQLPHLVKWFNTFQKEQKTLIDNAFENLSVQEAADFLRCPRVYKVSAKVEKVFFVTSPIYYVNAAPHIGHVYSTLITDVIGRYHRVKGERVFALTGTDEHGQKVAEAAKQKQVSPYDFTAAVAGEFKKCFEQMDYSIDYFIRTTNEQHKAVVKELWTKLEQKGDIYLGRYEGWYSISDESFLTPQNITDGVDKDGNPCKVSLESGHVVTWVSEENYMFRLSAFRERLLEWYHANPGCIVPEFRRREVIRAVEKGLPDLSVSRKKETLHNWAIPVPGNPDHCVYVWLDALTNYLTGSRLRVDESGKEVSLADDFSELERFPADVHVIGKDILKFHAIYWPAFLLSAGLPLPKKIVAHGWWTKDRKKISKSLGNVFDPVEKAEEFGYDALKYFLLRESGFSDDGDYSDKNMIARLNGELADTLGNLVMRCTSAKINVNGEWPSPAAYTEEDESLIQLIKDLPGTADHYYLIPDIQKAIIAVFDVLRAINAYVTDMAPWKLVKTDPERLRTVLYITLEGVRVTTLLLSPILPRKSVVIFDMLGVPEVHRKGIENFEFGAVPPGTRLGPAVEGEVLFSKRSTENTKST
The class given is functional, Trypanosoma brucei brucei strain 927/4 GUTat10.1.

For assay [15], the target named is T5, Methionyl-tRNA synthetase, putative. Format: functional, Trypanosoma brucei brucei strain 927/4 GUTat10.1. This is another data set of the same source.
Assay [16] can be described thus: Counterscreen for inhibitors of Trypanosoma brucei methionyl tRNA synthetase (MetRS): Luminescence-based cell-based high throughput dose response assay to identify compounds that are cytotoxic to Jurkat human T lymphocyte cells. Format: functional.
For assay [17], the target named is T6, Corticotropin-releasing factor receptor 2/Corticotropin-releasing factor-binding protein (Homo sapiens, UniProt P24387+Q13324).
T6 sequence (Q13324 whole entry): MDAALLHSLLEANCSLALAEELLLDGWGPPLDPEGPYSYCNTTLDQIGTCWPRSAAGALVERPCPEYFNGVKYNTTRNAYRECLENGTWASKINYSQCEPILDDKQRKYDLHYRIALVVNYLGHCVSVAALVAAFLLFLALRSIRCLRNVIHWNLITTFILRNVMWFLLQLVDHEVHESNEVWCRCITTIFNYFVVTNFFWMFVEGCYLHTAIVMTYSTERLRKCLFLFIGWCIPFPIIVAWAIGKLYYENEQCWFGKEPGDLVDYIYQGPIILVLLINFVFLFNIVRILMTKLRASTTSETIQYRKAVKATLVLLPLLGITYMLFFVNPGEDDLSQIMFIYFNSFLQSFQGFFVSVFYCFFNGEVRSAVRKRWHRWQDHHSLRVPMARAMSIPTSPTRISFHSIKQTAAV
T6 sequence (P24387 whole entry): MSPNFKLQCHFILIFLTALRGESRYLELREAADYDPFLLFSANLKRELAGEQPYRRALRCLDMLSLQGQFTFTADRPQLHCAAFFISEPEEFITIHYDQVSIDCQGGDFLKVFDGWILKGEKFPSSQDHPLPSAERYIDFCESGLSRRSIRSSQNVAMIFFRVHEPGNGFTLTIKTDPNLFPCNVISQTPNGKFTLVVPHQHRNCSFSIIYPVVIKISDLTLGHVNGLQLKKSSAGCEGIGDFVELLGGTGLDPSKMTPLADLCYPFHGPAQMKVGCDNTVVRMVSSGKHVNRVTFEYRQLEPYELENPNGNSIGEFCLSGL
The experiment in a line: Dose Response confirmation of uHTS hits for small molecule antagonists of the CRF-binding protein and CRF-R2 receptor complex. Format: functional. The settings on record: read-out: IC50_Mean.

Assay [18] addresses T7, Fatty acid synthase (Homo sapiens, UniProt P49327). Briefly: inhibition of human FAS-TE enzyme activity – biochemical, kinetic fluorescence intensity, dose response (AID 624326).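 Note: rate of fluorescence rise from hydrolysis of a fluorogenic O-methyl fluorescein ester substrate.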 Format: functional.
In assay [19] the target is T7, Fatty acid synthase. The experiment in a line: inhibition of human FAS-TE enzyme activity – biochemical, endpoint fluorescence intensity, uHTS hits, dose response (AID 624327).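 Note: fluorescence from hydrolysis of an O-methyl fluorescein acyl ester substrate by the enzyme.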 The class given is functional.
In assay [20] the target is T6, Corticotropin-releasing factor receptor 2/Corticotropin-releasing factor-binding protein. The experiment in a line: activators of CRF receptor 2 with binding protein – uHTS hits, confirmation (AID 602473). Format: functional. The settings on record: read-out: EC50_Mean.

T7 sequence (P49327 whole entry): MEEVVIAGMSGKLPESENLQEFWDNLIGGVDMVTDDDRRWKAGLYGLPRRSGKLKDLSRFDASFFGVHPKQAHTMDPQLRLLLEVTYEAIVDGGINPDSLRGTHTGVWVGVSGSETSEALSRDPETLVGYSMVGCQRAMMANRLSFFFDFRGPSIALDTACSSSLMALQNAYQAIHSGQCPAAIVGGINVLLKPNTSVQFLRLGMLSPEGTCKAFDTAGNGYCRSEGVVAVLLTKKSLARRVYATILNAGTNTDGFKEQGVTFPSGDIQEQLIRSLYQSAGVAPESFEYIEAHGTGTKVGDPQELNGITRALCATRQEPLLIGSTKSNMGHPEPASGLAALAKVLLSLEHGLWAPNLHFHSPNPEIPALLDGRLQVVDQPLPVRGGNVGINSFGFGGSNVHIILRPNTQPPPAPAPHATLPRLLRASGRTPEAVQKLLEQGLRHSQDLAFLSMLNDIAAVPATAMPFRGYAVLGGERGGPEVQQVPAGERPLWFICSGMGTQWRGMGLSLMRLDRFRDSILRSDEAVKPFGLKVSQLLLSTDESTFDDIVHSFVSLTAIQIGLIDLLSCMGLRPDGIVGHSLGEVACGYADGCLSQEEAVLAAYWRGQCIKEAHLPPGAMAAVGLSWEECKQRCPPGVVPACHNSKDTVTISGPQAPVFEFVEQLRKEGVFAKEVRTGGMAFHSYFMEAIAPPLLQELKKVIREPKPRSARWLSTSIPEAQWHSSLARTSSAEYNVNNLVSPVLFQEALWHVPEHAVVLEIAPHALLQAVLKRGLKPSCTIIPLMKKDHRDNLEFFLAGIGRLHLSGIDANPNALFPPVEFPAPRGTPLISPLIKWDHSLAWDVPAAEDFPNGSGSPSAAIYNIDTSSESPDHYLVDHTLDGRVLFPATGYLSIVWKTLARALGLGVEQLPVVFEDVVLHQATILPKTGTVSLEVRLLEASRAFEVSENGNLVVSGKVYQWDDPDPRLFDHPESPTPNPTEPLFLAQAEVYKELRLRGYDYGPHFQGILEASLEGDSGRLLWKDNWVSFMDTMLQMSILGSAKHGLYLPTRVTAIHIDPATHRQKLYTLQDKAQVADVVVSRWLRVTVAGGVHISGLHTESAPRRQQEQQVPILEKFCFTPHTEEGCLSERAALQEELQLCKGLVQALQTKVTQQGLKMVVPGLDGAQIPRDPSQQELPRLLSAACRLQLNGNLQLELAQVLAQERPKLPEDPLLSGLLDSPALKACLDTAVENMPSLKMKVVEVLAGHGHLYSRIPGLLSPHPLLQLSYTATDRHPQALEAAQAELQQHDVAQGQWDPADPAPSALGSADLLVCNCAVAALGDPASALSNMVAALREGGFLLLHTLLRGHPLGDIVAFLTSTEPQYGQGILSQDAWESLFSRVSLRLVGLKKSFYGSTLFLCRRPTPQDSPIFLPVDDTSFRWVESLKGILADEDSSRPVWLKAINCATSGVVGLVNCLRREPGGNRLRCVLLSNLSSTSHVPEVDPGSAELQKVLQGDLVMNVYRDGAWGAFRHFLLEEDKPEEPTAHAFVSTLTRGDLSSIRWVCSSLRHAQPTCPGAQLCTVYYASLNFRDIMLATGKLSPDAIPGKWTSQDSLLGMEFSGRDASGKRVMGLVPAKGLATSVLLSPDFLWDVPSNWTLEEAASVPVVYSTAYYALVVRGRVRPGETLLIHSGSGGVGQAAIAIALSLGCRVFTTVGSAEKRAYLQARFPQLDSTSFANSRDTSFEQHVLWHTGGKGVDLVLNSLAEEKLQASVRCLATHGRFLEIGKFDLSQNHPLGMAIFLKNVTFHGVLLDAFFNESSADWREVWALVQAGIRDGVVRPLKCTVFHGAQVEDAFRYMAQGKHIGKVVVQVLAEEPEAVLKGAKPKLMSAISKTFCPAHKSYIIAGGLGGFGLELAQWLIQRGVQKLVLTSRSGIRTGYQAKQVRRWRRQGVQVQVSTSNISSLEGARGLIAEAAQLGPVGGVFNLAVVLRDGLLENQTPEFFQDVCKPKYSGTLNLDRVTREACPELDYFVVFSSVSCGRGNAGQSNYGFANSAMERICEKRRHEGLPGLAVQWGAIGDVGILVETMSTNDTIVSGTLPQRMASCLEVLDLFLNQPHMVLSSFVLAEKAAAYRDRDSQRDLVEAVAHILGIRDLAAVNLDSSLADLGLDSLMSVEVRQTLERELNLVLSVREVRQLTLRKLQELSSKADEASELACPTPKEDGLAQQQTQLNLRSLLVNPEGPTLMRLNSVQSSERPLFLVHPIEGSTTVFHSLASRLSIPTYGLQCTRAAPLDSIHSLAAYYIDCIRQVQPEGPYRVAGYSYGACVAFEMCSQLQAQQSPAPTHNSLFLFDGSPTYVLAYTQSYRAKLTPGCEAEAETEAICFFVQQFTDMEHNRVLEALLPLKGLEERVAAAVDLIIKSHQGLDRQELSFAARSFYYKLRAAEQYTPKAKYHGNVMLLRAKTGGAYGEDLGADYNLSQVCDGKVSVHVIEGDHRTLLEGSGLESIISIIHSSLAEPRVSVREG

As for `Oc1ccccc1/C=N/c1cccc2ccccc12`, the IC50 in [1] was > 3.33 µM (active).

On to `O=C(Nc1ccc(NS(=O)(=O)c2ccccc2)cc1)c1cccnc1`, for which the AC50 in assay [2] was 5.75 µM (active).

For the compound `CCOC(=O)C1CCN(C(=O)Nc2ccc3snnc3c2)CC1`, the AC50 in assay [2] is 0.85 µM (active).

Regarding `COCCn1c(C)cc(C(=O)COC(=O)c2ccc(Cl)c(S(N)(=O)=O)c2)c1C`, the IC50 (in “cells”; in assay [3]) was > 67.5 µM (inactive) in each case.

Regarding `Cc1cccnc1NC(=O)COc1ccc2c(c1)CCC2`, the IC50 (in “cells”; in [3]) was > 67.6 µM (inactive) each time.

As to `O=C1CCCc2c1cc(C(=O)NCCCN1CCOCC1)c(=O)n2-c1ccc(Cl)cc1`, in [2], the AC50 was 10.1 µM (active).

Regarding `COc1ccc(OC)c2sc(N(CCN(C)C)C(=O)/C=C/c3cccs3)nc12`, the IC50 in assay [4] was 13.3 µM (inactive). The EC50 in [5] was > 91.1 µM (inactive); in assay [6] it was > 91.1 µM (inactive); in [8], 8.13 µM (active); in assay [11], 6.88 µM (active); in assay [12] it was 3.18 µM (active). For the same compound, the AC50 in assay [7] is 12.8 µM (active); in [9], 19.1 µM (active); in [10] it was 10.6 µM (active); in [13], 25.8 µM (active).

Take `N#Cc1c(-c2ccc(Br)cc2)cc(-c2cccnc2)nc1N`: the IC50 in assay [1] was 1.2 µM (active).

Take `O=C(C/C=N\OCc1ccc([N+](=O)[O-])cc1)Nc1ccc(Br)cc1`: the IC50 in assay [14] is 1.25 µM (active); in assay [15] it was 0.784 µM (active); in assay [16] it was 83.3 µM (inactive); in assay [17] it was > 47.1 µM (inactive); on Fatty acid synthase [18] it was 7.6 µM (active); on Fatty acid synthase [19], 10.1 µM (active). In assay [20], the EC50 is > 53 µM (inactive).

In the case of `N#C/C(=N\Nc1cc(Cl)cc(Cl)c1)c1nnc2n1CCCCC2`, the IC50 in [14] is 27.4 µM (inactive); in assay [15], 16.6 µM (inactive); in assay [16], 83.3 µM (inactive).

Consider `COc1ccc(C(=O)Nc2cccc(OC)c2)cc1`, for which the IC50 (in “cells”; in assay [3]) was > 67.6 µM (inactive) each time.

On to `Cc1ccccc1NC(=O)Cn1c(C)nc2ccc(N)cc2c1=O`, for which the IC50 in [1] is > 1.11 µM (active).

In general, AC50 refers to the concentration giving half of the maximal activity seen.
